Here are results for five molecules from article PMC6271703, “Absorbability, Mechanism and Structure-Property Relationship of Three Phenolic Acids from the Flowers of Trollius chinensis” (Molecules, 2014).

Data set [1] in a line: Caco-2 cell monolayer transport experiment. Type of data set: in vitro ADME. As to conditions: human; for Papp A→B at 90 min, 100 μmol/L: incubation up to 90 min, n = 3. How it is done: To facilitate the cells’ differentiation and formation of a confluent monolayer, Caco-2 cells were seeded at a density of 1.0 × 10^5 cells/cm^2 on a 12-well Transwell insert filter. The inserts were fed with culture medium at 2 days intervals in the first week, and then at daily intervals for the AP side and 2 days intervals for the BL side until they were used for the transport experiment 21 days after seeding. The AP and BL sides contained 0.5 mL and 1.5 mL of culture medium, respectively. […] The cell inserts were used after the resistance reached above 600 Ω∙cm^2.
On day 21, transport study was initiated by careful removal of the culture medium from AP and BL sides. Caco-2 monolayers were rinsed twice with pre-warmed HBSS and were incubated by pre-warmed HBSS for 30 min at 37 °C. PA, GA and TS were dissolved in DMSO, and diluted to the concentration of 25, 50 and 100 μmol/L with HBSS. The final DMSO concentration was less than 1%. Test compounds were added to the AP side (0.5 mL) or BL side (1.5 mL) of the inserts, while the receiving chamber contained the corresponding volume of HBSS. […] At 30, 60, 90, 120, 150 and 180 min, 0.2 mL of solutions from BL side or AP side were collected, and replaced with an equal volume of HBSS. Samples were frozen immediately and stored below −20 °C before analysis. Upon completion of all permeation experiments, TEER values were measured to ensure that cell monolayer integrity and viability had not been adversely affected by experimental conditions.
(§1) The cell survival rate (%) was calculated using the equation survival rate= A/A0 × 100, wherein A was the average absorbance value of treatment group; A0 was the average absorbance value of the blank control group. The Papp was determined in this study by HPLC quantification of the compounds in the receiver chamber after transport across the Caco-2 monolayer. The calculation was described by the equation Papp = (dQ/dt) × (1/A) × (1/C0), wherein dQ/dt was the rate of appearance of the test compound on the receiver compartment (μmol/s); C0 was the initial test compound concentration on the donor compartment (μmol/mL); and A was the surface area of Caco-2 monolayer (cm^2).
The percentage transported (%) was calculated using the equation % Transported = QB/(CS × VD) × 100, wherein QB was the amount of compounds in the receiver compartment(μmol); CS was the donor concentration of test compounds (μmol/L); VD was the volume of the donor compartment (L). The transport rate (μmol/h/cm^2) was calculated using the equation transport rate = QB/(t × A), wherein QB was the amount of compounds in the receiver compartment(μmol); t was the incubating time (h); A was the surface area of Caco-2 monolayer (cm^2).

A further data set deals with Caco-2 cells. Description: MTT assay on Caco-2 cells. As to conditions: for Survival Rate: 4 h, n = 4. The data set is classed as cell-based, human. As to the method: Caco-2 cells at logarithmic growth phase were seeded onto 96-well plates and incubated at 37 °C in culture hood. The culture medium was removed after cells formed a full layer, and each 100 μL of HBSS solution (negative control group) and drug-containing HBSS solution (three phenolic acids at the concentrations of 25, 50 and 100 μmol/L, respectively) was added to each well. When the plates were cultured for 4 h, HBSS solution was completely transferred out and each 100 μL of MTT solution (0.5 mg/mL) was added to each well. MTT solution was removed carefully after 4 hours of incubation at 37 °C, and each 150 μL of DMSO was added to each well, then culture vessels were agitated on an orbital shaker for 10 min and absorbance was read on a microplate reader at 570 nm.
as §1
On the technique in general: Formazan colour is commonly taken as a measure of viable cells.

Data set [2] in a line: Caco-2 cell monolayer transport experiment. Type of data set: in vitro ADME. Conditions: human; for Papp A→B at 90 min, 25 μmol/L / Papp B→A at 90 min, 25 μmol/L / Papp A→B at 90 min, 50 μmol/L / Papp B→A at 90 min, 50 μmol/L / Papp B→A at 90 min, 100 μmol/L / Papp A→B at 90 min / Papp B→A at 90 min: incubation up to 90 min; for Papp A→B at 90 min, 25 μmol/L / Papp B→A at 90 min, 25 μmol/L / Papp A→B at 90 min, 50 μmol/L / Papp B→A at 90 min, 50 μmol/L / Papp B→A at 90 min, 100 μmol/L: n = 3; for Papp A→B at 90 min / Papp B→A at 90 min: average of 25, 50 and 100 μmol/L; for Papp at 90 min: monitored for 90 min, read-out: bidirectional Papp level (AP to BL and BL to AP).

The subject of a further data set is influenza A. Details: method as in ref [7] = [7]; 7. Wang R.F. The Constituents and Bioactivities of Jinlianhua and Pangdahai Doctoral Thesis Peking University Bejing, China 2003. As to conditions: antiviral, ref [7]; cited from earlier work.
In the next data set the test system is Streptococcus pneumonia. Details: method as in ref [7] = [7]; 7. Wang R.F. The Constituents and Bioactivities of Jinlianhua and Pangdahai Doctoral Thesis Peking University Bejing, China 2003. Conditions: ref [7]; cited from earlier work.
Another data set deals with Pseudomonas aeruginosa. Set-up: method as in PMID 11849843. As to conditions: ref [4],[5]; cited from earlier work.
Another data set deals with Para 3. Set-up: method as in ref [6] = [6]; 6. Li Q.F. Feng S.Q. Li Y.L. Cen Y.Z. Yang Y.T. Wang L.Y. Study on the antibacterial and antiviral activity compositions of Trollius chinensis Bunge J. Zhejiang Univ. (Sci. Ed.) 2004 31 412 415. Conditions: antiviral, ref [6]; cited from earlier work.
The test system of another data set is Staphylococcus aureus. Set-up: method as in PMID 11849843. Conditions: ref [4],[5]; cited from earlier work.

Structures are written as SMILES. In brackets after ≈: the same amount, converted by molar mass.

The Papp is the rate of passage across a membrane or cell layer, normalised by area and donor concentration. Regarding `CC(C)NCC(O)COc1cccc2ccccc12` (stereo not shown) [propranolol, reference compound], the apparent permeability coefficient (Papp) at 180 min in data set [1] (standard markers added to the AP side, model validation, read-out: Papp of reference controls) is 12.4 ×10⁻⁶ cm/s.

As a reminder, the Papp A→B is how fast a substance crosses the layer from the apical side. The Papp B→A is the apparent permeability from the basolateral to the apical side of a cell layer. What is called IC50 is the concentration at which inhibition is half-maximal. In data set [1], `COc1cc(C(=O)O)cc2c1OC(C)(C)CC2` [GA, 8-methoxy-2,2-dimethylchroman-6-carboxylic acid] returned a Papp A→B at 90 min, 100 μmol/L of 17 ± 1.2 ×10⁻⁶ cm/s. Besides, the “Survival Rate” value in the data set on Caco-2 cells (25 μmol/L) came out at 107.1 ± 5.7%. In addition, the “Survival Rate” value with Caco-2 cells (50 μmol/L) was determined as 118.9 ± 13.7%. The “Survival Rate” value in the data set on Caco-2 cells (100 μmol/L) was determined as 123.6 ± 6.2%. In data set [2], this molecule displayed an apical-to-basolateral permeability (Papp A→B) at 90 min, 25 μmol/L of 21.4 ± 2 ×10⁻⁶ cm/s; a basolateral-to-apical permeability (Papp B→A) at 90 min, 25 μmol/L of 22.1 ± 0.8 ×10⁻⁶ cm/s; an apical-to-basolateral permeability (Papp A→B) at 90 min, 50 μmol/L of 15.9 ± 0.2 ×10⁻⁶ cm/s; a basolateral-to-apical permeability (Papp B→A) at 90 min, 50 μmol/L of 20 ± 0.7 ×10⁻⁶ cm/s. Besides, in data set [2], the Papp B→A at 90 min, 100 μmol/L was determined as 19.4 ± 1 ×10⁻⁶ cm/s; the Papp A→B at 90 min is 18.1 ± 1.1 ×10⁻⁶ cm/s; the Papp B→A at 90 min amounted to 20.5 ± 0.8 ×10⁻⁶ cm/s; the apparent permeability coefficient (Papp) at 90 min is about 10 ×10⁻⁶ cm/s. The IC50 in the data set with influenza A was 42.1 µg/mL (≈ 178 µM).

For orientation: MIC means the smallest concentration in the dilution series that meets the test's criterion for growth inhibition. Take `COc1cc(C(=O)O)cc(CC=C(C)C)c1O[C@@H]1O[C@H](CO)[C@@H](O)[C@H](O)[C@H]1O` [TS, 3-methoxy-5-(3-methylbut-2-en-1-yl)-4-(((2S,3R,4S,5S,6R)-3,4,5-trihydroxy-6-(hydroxymethyl)tetrahydro-2H-pyran-2-yl)oxy)benzoic acid]: in data set [1], the Papp A→B at 90 min, 100 μmol/L was 7.7 ± 0.9 ×10⁻⁶ cm/s. The “Survival Rate” value in the data set on Caco-2 cells (25 μmol/L) is reported as 98.9 ± 4.3%. The “Survival Rate” value in the data set with Caco-2 cells (50 μmol/L) is on record as 107.3 ± 7.0%. Besides, the “Survival Rate” value in the data set on Caco-2 cells (100 μmol/L) is listed as 118.2 ± 8.1%. In addition, in data set [2], the Papp A→B at 90 min, 25 μmol/L worked out at 8.6 ± 1.6 ×10⁻⁶ cm/s; the basolateral-to-apical permeability (Papp B→A) at 90 min, 25 μmol/L was 8.6 ± 0.4 ×10⁻⁶ cm/s; the apical-to-basolateral permeability (Papp A→B) at 90 min, 50 μmol/L came out at 10.6 ± 0.3 ×10⁻⁶ cm/s; the Papp B→A at 90 min, 50 μmol/L was 10.8 ± 0.6 ×10⁻⁶ cm/s. Further, in data set [2], the apparent permeability from basolateral to apical (Papp B→A) at 90 min, 100 μmol/L was 8 ± 0.3 ×10⁻⁶ cm/s; the Papp A→B at 90 min came to 8.9 ± 0.9 ×10⁻⁶ cm/s; the Papp B→A at 90 min came to 9.1 ± 0.4 ×10⁻⁶ cm/s; the Papp at 90 min is about 10 ×10⁻⁶ cm/s. The minimal inhibitory concentration (MIC) in the data set with Streptococcus pneumonia is 128 µg/mL (≈ 321 µM).

`CC(=O)O[C@H]1C(=O)[C@@]2(C)[C@H]([C@H](OC(=O)c3ccccc3)[C@]3(O)C[C@H](OC(=O)[C@H](O)[C@@H](NC(=O)c4ccccc4)c4ccccc4)C(C)=C1C3(C)C)[C@]1(OC(C)=O)CO[C@@H]1C[C@@H]2O` [Paclitaxel, reference compound]: the “Survival Rate” value is given as 67.3 ± 8.2% in the data set with Caco-2 cells (25 μmol/L), 45.5 ± 6.7% in the data set with Caco-2 cells (50 μmol/L) and 37.4 ± 3.5% with Caco-2 cells (100 μmol/L). Further, in the data set with Caco-2 cells (at different concentrations (25, 50, 100 μmol/L)), the “Survival rate of Caco-2 cells” value is given as “below 70%”.

Consider `COc1cc(C(=O)O)cc(CC=C(C)C)c1O` [PA, 4-hydroxy-3-methoxy-5-(3-methylbut-2-en-1-yl)benzoic acid], for which the minimum inhibitory concentration (MIC) in the data set on Pseudomonas aeruginosa is 16 µg/mL (≈ 67.7 µM). Besides, the Papp A→B at 90 min, 100 μmol/L in data set [1] was determined as 29.6 ± 1.1 ×10⁻⁶ cm/s. The “Survival Rate” value in the data set on Caco-2 cells (25 μmol/L) amounted to 118.8 ± 11.6%. Also, in the data set with Caco-2 cells (50 μmol/L), the “Survival Rate” value was determined as 110.5 ± 3.8%. Moreover, the “Survival Rate” value in the data set with Caco-2 cells (100 μmol/L) was 124.5 ± 2.2%. Also, in the data set with Para 3, the IC50 is 184.2 µg/mL (≈ 780 µM). In data set [2], this molecule returned a Papp A→B at 90 min, 25 μmol/L of 31.7 ± 0.4 ×10⁻⁶ cm/s; a Papp B→A at 90 min, 25 μmol/L of 25.4 ± 2.2 ×10⁻⁶ cm/s; a Papp A→B at 90 min, 50 μmol/L of 28 ± 1.3 ×10⁻⁶ cm/s; a Papp B→A at 90 min, 50 μmol/L of 25.6 ± 1.9 ×10⁻⁶ cm/s. In data set [2], the Papp B→A at 90 min, 100 μmol/L amounted to 25.9 ± 1.4 ×10⁻⁶ cm/s; the apparent permeability from apical to basolateral (Papp A→B) at 90 min stood at 29.8 ± 1.3 ×10⁻⁶ cm/s; the Papp B→A at 90 min worked out at 25.6 ± 1.8 ×10⁻⁶ cm/s; the Papp at 90 min is about 10 ×10⁻⁶ cm/s. Moreover, the MIC with Staphylococcus aureus was 200 µg/mL (≈ 846 µM).
